These results are taken from ChEMBL document CHEMBL5727966, “Compositions and methods for treating disorders of circadian and diurnal rhythms using prokineticin 2 agonists and antagonists” (2020).

The experiment is described as follows: Aequorin-Based Luminescent Assay : An aequorin-based luminescent assay for calcium mobilization was used to measure mobilization of intracellular Ca2+ (Bullock et al., Mol Pharmacol 65, 582-588, 2004). Chinese hamster ovary (CHO) cells stably expressing photoprotein aequorin and recombinant PKR1 or PKR2 were tested by this method. Briefly, the cells were charged in Opti-MEM™ (Invitrogen) containing 8 μM of coelenterazine cp at 37° C. for 2 hours. Cells were detached by brief trypsinization and maintained in Hank's Balanced Salt Solution (HBSS) plus 10 mM HEPES (pH7.5) and 0.1% BSA at about 5×10^5 cells/ml. Luminescence measurements were made using a Berthold luminometer.All compounds were diluted in HBSS plus 10 mM HEPES (pH7.5) and 0.1% BSA. To test the agonist activity, 100 μl of cells were injected into the tubes with 20 μl of compounds. For antagonist assays, 80 μl cells were incubated in the tubes with 20 μl different concentrations of antagonists at room temperature for 20 minutes, and then 100 μl of recombinant PK2 were injected. The IC50 obtained from the assays were then converted to Ki values using the formula: IC50/(1+[PK2]/EC50PK2). The format is cell-based. A general note: Calcium flux is commonly read through the fluorescence of an indicator in the cells.

Consider `CC(C)CN(Cc1cc(Cl)c2c(c1)OCCCO2)C(=O)C1CN(Cc2cccc3nc[nH]c23)CCO1` (stereo unspecified), for which the Ki is 8.4 nM.

As a reminder, the Ki is a dissociation constant, usually derived from enzyme kinetics or from competition with a known ligand.
